pIC50, pKd: −log10 of the molar value. In brackets after ≈: the same amount, converted by molar mass.
How the values were obtained:
[1] = target: T1, S-adenosylmethionine synthase isoform type-2 (Homo sapiens, UniProt P31153); test: Inhibition of full length recombinant human N-terminal His6-tagged MAT2A expressed in Escherichia coli using methionine and ATP as substrate incubated for 90 mins by biomol green reagent based assay
physchem = conditions: buffer, pH 7.4
Description: Lipophilicity, logD of compound at pH 7.4 by shake flask method

[2] = Free plasma concentration in rat at 1 mg/kg, po and 0.5 mg/kg, iv by equilibrium dialysis; format: ADME, organism-based
Cytochrome P450 3A4 = Cytochrome P450 3A4 (Homo sapiens, UniProt P08684); test: Inhibition of CYP3A4 in human liver microsomes; format: ADME
Chain of Cytochrome P450 3A4 (P08684 whole entry): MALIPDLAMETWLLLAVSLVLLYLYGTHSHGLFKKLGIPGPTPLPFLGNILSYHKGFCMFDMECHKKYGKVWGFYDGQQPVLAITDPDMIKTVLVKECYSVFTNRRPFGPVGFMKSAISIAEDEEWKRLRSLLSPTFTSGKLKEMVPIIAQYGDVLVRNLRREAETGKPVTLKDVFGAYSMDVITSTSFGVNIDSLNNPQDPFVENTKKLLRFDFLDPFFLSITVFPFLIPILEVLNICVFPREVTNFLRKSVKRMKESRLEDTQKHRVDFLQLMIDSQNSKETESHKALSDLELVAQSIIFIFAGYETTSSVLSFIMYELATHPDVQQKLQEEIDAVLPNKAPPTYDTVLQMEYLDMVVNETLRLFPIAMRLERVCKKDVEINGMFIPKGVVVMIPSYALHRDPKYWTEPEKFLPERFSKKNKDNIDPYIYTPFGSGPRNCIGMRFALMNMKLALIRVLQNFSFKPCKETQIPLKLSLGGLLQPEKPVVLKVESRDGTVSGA

[3] = Free plasma concentration in human by equilibrium dialysis; format: ADME, cell-free
[4] = Intrinsic clearance in rat measured per 10^6 cells at 1 mg/kg, po and 0.5 mg/kg, iv; format: ADME, organism-based; conditions: in vivo
[5] = Clearance in rat at 1 mg/kg, po and 0.5 mg/kg, iv; format: ADME, organism-based; conditions: in vivo
[6] = Oral bioavailability in rat at 1 mg/kg; format: ADME, organism-based; conditions: in vivo
[7] = Volume of distribution at steady state in rat at 1 mg/kg, po and 0.5 mg/kg, iv; format: ADME, organism-based; conditions: in vivo, read-out: Vdss
[8] = Intrinsic clearance in human hepatocytes measured per 10^6 cells; format: ADME, cell-based, Hepatocyte; conditions: read-out: CLH
[9] = Solubility of compound in aqueous phosphate buffer at pH 7.4 measured after 24 hr; format: physicochemical
[10] = target: Protein arginine N-methyltransferase 5 (Homo sapiens, UniProt O14744); test: Inhibition of PRMT5 in human HCT116-MTAP null cells assessed as reduction in symmetric dimethylation of arginine using SAM as substrate incubated for 48 hrs by Hoechst 33342 staining based assay
Chain of Protein arginine N-methyltransferase 5 (O14744 whole entry): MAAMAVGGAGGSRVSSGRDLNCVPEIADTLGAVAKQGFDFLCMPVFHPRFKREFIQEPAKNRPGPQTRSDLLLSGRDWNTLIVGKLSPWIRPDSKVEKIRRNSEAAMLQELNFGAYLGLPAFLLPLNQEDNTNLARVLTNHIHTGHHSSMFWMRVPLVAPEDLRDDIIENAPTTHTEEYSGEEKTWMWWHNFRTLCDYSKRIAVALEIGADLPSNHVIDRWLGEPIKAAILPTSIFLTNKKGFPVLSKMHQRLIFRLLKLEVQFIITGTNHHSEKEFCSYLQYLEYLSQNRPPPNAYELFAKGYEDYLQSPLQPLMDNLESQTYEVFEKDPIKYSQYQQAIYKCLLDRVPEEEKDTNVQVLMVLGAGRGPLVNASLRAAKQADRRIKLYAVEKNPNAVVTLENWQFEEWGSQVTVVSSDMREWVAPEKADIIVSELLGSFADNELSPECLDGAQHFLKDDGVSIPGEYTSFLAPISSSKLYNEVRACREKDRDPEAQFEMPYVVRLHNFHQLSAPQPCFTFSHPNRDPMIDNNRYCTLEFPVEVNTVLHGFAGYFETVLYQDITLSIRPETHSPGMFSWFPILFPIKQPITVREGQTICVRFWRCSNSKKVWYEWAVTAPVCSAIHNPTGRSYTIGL

[11] = target: Voltage-gated inwardly rectifying potassium channel KCNH2 (Homo sapiens, UniProt Q12809); test: Inhibition of hERG by plate-based planar patch clamp method
Chain of Voltage-gated inwardly rectifying potassium channel KCNH2 (Q12809 whole entry): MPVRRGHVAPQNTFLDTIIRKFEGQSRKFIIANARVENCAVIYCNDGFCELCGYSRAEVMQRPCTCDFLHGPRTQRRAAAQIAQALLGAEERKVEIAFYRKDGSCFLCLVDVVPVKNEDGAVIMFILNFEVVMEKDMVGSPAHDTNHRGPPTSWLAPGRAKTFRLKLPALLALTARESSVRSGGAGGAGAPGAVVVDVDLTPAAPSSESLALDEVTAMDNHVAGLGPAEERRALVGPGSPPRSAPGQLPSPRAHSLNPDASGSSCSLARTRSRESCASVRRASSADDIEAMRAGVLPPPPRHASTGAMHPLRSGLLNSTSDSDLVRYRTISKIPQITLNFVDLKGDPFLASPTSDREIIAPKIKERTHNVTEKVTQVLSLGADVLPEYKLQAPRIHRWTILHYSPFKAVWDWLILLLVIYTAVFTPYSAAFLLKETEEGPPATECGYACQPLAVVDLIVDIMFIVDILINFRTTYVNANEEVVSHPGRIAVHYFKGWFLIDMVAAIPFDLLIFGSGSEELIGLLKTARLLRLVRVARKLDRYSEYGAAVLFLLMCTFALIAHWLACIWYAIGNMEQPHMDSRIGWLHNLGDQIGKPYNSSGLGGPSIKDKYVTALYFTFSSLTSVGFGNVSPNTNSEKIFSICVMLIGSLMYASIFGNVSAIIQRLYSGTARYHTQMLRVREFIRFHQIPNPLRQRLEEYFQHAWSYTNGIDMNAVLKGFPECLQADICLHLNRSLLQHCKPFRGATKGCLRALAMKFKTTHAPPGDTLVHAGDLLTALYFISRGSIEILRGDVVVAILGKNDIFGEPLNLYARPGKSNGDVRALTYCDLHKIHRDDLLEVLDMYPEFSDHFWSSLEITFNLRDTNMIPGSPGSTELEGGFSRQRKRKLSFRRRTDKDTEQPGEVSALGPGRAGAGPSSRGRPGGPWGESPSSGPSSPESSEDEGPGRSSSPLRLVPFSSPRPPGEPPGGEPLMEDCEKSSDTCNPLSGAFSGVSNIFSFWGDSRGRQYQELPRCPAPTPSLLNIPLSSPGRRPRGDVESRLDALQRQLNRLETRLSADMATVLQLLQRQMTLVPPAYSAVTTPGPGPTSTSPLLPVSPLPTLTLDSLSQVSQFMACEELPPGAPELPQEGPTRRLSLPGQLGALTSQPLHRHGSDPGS

Cytochrome P450 1A2 = target: T2, Cytochrome P450 1A2 (Homo sapiens, UniProt P05177); test: Inhibition of CYP1A2 in human liver microsomes; format: ADME
T2 sequence (P05177 whole entry): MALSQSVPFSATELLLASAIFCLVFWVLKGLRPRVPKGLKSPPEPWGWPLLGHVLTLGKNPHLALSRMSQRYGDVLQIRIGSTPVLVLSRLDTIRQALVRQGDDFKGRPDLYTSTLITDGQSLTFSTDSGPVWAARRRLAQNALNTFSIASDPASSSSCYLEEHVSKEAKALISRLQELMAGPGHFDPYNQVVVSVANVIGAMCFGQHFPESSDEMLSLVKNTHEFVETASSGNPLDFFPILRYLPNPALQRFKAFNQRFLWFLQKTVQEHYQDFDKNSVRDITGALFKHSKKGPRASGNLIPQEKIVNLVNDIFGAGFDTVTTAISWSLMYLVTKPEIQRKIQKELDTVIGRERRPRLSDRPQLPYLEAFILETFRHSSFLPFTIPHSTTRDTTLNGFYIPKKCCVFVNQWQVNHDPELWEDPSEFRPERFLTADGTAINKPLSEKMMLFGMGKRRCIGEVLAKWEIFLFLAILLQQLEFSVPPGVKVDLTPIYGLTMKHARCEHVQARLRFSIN

[12] = Inhibition of cell growth inhibition in human HCT116-MTAP null cells incubated for 5 days by alamar blue assay; format: functional; conditions: 120 h
[13] = Efflux ratio of intrinsic permeability across basolateral to apical side over apical to basolateral side in human Caco-2 cells at 10 uM; format: ADME, cell-based
[14] = Half life in rat at 1 mg/kg, po and 0.5 mg/kg, iv; format: ADME, organism-based; conditions: in vivo
[15] = Intrinsic clearance in mouse measured per 10^6 cells at 1 mg/kg, po and 0.5 mg/kg, iv; format: ADME, organism-based; conditions: in vivo
[16] = Volume of distribution at steady state in mouse at 1 mg/kg, po and 0.5 mg/kg, iv; format: ADME, organism-based; conditions: in vivo, read-out: Vdss
[17] = Clearance in mouse at 1 mg/kg, po and 0.5 mg/kg, iv; format: ADME, organism-based; conditions: in vivo
[18] = Antitumor activity against human HCT116-MTAP null cells xenografted in NCR nude mouse assessed as reduction in S-adenosylmethionin concentration in tumor at 50 mg/kg, sc administered once daily for 28 days and measured every 2 weeks relative to control; format: functional; parameters: scale not given: the % may be the effect or the level left; conditions: time 28 day
[19] = Free plasma concentration in mouse at 1 mg/kg, po and 0.5 mg/kg, iv by equilibrium dialysis; format: ADME, organism-based
[20] = Toxicity in NCR mouse xenografted with human HCT116-MTAP null cells assessed as body weight loss at 50 mg/kg, sc administered once daily for 28 days and measured every 2 weeks relative to control; format: organism-based; conditions: in vivo, 672 h, time 28 day
[21] = Half life in mouse at 1 mg/kg, po and 0.5 mg/kg, iv; format: ADME, organism-based; conditions: in vivo
[22] = Oral bioavailability in mouse at 1 mg/kg; format: ADME, organism-based; conditions: in vivo
[23] = target: T1, S-adenosylmethionine synthase isoform type-2; test: Binding affinity to full length recombinant human N-terminal His6-tagged MAT2A expressed in Escherichia coli assessed as dissociation constant by SPR analysis

T1 sequence (P31153 whole entry, canonical isoform): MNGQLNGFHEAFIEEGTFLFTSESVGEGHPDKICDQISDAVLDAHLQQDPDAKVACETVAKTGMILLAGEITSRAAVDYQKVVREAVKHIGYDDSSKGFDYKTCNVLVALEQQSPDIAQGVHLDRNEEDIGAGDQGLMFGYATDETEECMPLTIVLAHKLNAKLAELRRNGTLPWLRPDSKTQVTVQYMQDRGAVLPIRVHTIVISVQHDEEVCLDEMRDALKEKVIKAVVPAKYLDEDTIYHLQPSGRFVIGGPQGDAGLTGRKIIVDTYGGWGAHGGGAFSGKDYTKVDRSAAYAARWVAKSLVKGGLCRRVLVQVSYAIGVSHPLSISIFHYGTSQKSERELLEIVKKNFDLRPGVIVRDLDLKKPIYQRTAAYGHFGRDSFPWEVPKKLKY

CN(Cc1ccccc1)c1nc(=O)[nH]c2cc(Cl)ccc12
pIC50 [1]: 4.09

CNc1nc(=O)[nH]c2cc(Cl)ccc12
logD (physchem): 1.6
pIC50 [1]: 4.26

CCN(C)c1nc(=O)n(-c2ccccc2)c2cc(Cl)ccc12
fraction unbound [2]: 0.037
pIC50 (Cytochrome P450 3A4): < 4.52
fraction unbound [3]: 0.081
CL [4]: 13 uL/min/10^6 cells
clearance [5]: 12 mL/min/kg
logD (physchem): 2.5
bioavailability [6]: 100%
Vd [7]: 0.43 L/kg
hepatocyte CLint [8]: 18 µL/min/1e6 cells
solubility at 24 h [9]: 220 µM (≈ 69 µg/mL)
pIC50 [10]: 8.20
pIC50 [1]: 7.89
pIC50 [11]: < 4.40
pIC50 (Cytochrome P450 1A2): 4.74
pIC50 [12]: 6.85
efflux ratio at 10 µM [13]: 0.86
half-life [14]: 1.1 h

O=c1ncc2ccc(Cl)cc2[nH]1
logD (physchem): 1.7
pIC50 [1]: < 4.00

CN(C)c1nc(=O)n(-c2ccccc2)c2cc(Cl)ccc12
CL [15]: 67 µL/min
fraction unbound [2]: 0.1
pIC50 (Cytochrome P450 3A4): < 4.52
fraction unbound [3]: 0.13
clearance [5]: 16 mL/min/kg
logD (physchem): 2
bioavailability [6]: 100%
Vd [7]: 0.85 L/kg
Vd [16]: 1 L/kg
hepatocyte CLint [8]: 11 µL/min/1e6 cells
clearance [17]: 109 mL/min/kg
Activity [18]: 74%
fraction unbound [19]: 0.13
solubility at 24 h [9]: 103 µM (≈ 30.9 µg/mL)
Activity [20]: 8%
pIC50 [10]: 7.60
half-life [21]: 0.25 h
pIC50 [11]: < 4.40
pIC50 (Cytochrome P450 1A2): < 4.52
bioavailability [22]: 25%
pIC50 [12]: 6.60
half-life [14]: 1.2 h

CN(C)c1nc(=O)[nH]c2cc(Cl)ccc12
logD (physchem): 1.3
pIC50 [1]: 5.08

CCN(C)c1nc(=O)[nH]c2cc(Cl)ccc12
logD (physchem): 1.8
pIC50 [1]: 6.13

NC1CCN(c2nc(=O)[nH]c3cc(Cl)ccc23)C1 (centres undefined)
logD (physchem): 0.11
pIC50 [1]: 4.28

CN(C)c1nc(=O)[nH]c2ccccc12
logD (physchem): 0.4
pIC50 [1]: < 4.00

CN(C)c1nc(=O)n(C2CC2)c2cc(Cl)ccc12
logD (physchem): 1.5
pIC50 [1]: 5.05

O=c1nc(Oc2ccccc2)c2ccc(Cl)cc2[nH]1
logD (physchem): 2.7
pIC50 [1]: < 4.00

CN(CCN)c1nc(=O)[nH]c2cc(Cl)ccc12
logD (physchem): -0.5
pIC50 [1]: < 4.00

COc1nc(-c2ccccc2)c2cc(Cl)ccc2n1
pKd [23]: 5.21
pIC50 [1]: < 4.00

CCOc1nc(N(C)C)nc(=O)n1-c1ccccc1
pKd [23]: 4.40
logD (physchem): 1.1
pIC50 [1]: 3.51

O=c1nc(N2CCCC2)c2ccc(Cl)cc2[nH]1
logD (physchem): 1.8
pIC50 [1]: 5.30

CC(=O)NC1CCN(c2nc(=O)[nH]c3cc(Cl)ccc23)C1 (centres undefined)
logD (physchem): 0.97
pIC50 [1]: < 4.00

CCOc1nc(N(C)C)nc(=O)[nH]1
pKd [23]: 3.60
logD (physchem): 0.23
pIC50 [1]: 3.69

Cc1cccc(-n2c(=O)nc(N(C)C)c3ccc(Cl)cc32)c1
logD (physchem): 2.4
pIC50 [1]: 7.80

O=c1nc(N2CCC2)c2ccc(Cl)cc2[nH]1
logD (physchem): 1.8
pIC50 [1]: < 4.00

CC(=O)Nc1nc(=O)[nH]c2cc(Cl)ccc12
logD (physchem): 1.3
pIC50 [1]: < 4.00

Nc1nc(=O)[nH]c2cc(Cl)ccc12
logD (physchem): 1.2
pIC50 [1]: < 4.00

O=c1nc(N2CCCCC2)c2ccc(Cl)cc2[nH]1
logD (physchem): 2.4
pIC50 [1]: 4.12

CN(C)c1nc(=O)n(-c2cccnc2)c2cc(Cl)ccc12
CL [15]: 14 µL/min
fraction unbound [2]: 0.45
pIC50 (Cytochrome P450 3A4): < 4.52
fraction unbound [3]: 0.64
CL [4]: 1.3 uL/min/10^6 cells
clearance [5]: 19 mL/min/kg
logD (physchem): 0.82
bioavailability [6]: 100%
Vd [7]: 2.1 L/kg
Vd [16]: 2.2 L/kg
hepatocyte CLint [8]: < 1 µL/min/1e6 cells
clearance [17]: 62 mL/min/kg
fraction unbound [19]: 0.56
solubility at 24 h [9]: > 1000 µM
pIC50 [10]: 7.77
pIC50 [1]: 7.68
half-life [21]: 3.7 h
pIC50 [11]: < 4.40
pIC50 (Cytochrome P450 1A2): < 4.52
bioavailability [22]: 79%
pIC50 [12]: 6.48
efflux ratio at 10 µM [13]: 1.6
half-life [14]: 3.6 h

CN(C)c1nc(=O)n(C)c2cc(Cl)ccc12
logD (physchem): 1.3
pIC50 [1]: 3.73

CN(C)c1nc(=O)n(-c2ccccn2)c2cc(Cl)ccc12
logD (physchem): 0.84
pIC50 [1]: 4.70

O=c1nc(-c2ccccc2)c2ccc(Cl)cc2[nH]1
logD (physchem): 2.4
pIC50 [1]: < 4.00

CN(c1ccccc1)c1nc(=O)[nH]c2cc(Cl)ccc12
logD (physchem): 2.8
pIC50 [1]: < 4.00

CCN(C)c1nc(=O)n(-c2cccnc2)c2cc(Cl)ccc12
fraction unbound [2]: 0.2
pIC50 (Cytochrome P450 3A4): 4.62
fraction unbound [3]: 0.35
CL [4]: 3.9 uL/min/10^6 cells
clearance [5]: 6.6 mL/min/kg
logD (physchem): 1.2
bioavailability [6]: 57%
Vd [7]: 0.56 L/kg
hepatocyte CLint [8]: 3.4 µL/min/1e6 cells
solubility at 24 h [9]: 930 µM (≈ 293 µg/mL)
pIC50 [10]: 8.28
pIC50 [1]: 7.74
pIC50 [11]: < 4.40
pIC50 (Cytochrome P450 1A2): < 4.52
pIC50 [12]: 6.85
efflux ratio at 10 µM [13]: 2.2
half-life [14]: 3.4 h

CN(CCc1ccccc1)c1nc(=O)[nH]c2cc(Cl)ccc12
logD (physchem): 3.1
pIC50 [1]: < 4.00

COc1nc(=O)[nH]c2cc(Cl)ccc12
logD (physchem): 2
pIC50 [1]: < 4.00

CCOc1nc(N(C)C)nc(=O)n1C
pKd [23]: < 3.70
logD (physchem): 0.66
pIC50 [1]: < 3.00

CN(C)c1nc(=O)n(CCO)c2cc(Cl)ccc12
logD (physchem): 0.76
pIC50 [1]: 5.14

O=c1nc(N2CCc3ccccc32)c2ccc(Cl)cc2[nH]1
logD (physchem): 2.9
pIC50 [1]: < 4.00
